Source: patent publication US7910723B2, “IG20 splice variants therapeutics for cancer” (The Board of Trustees of the University of Illinois, priority 2006, dated 2011)

Columns and labels:
Type in all cases: cell-based
MADD [1] = test: Phosphorylation of exogenous wtMADD in HEK293 cells (anti-phospho antibodies); details: HEK293 transfected with wtMADD; LY 10 μM 1 h, IGF-1 150 ng/ml 20 minutes
Protocol: (A) In vitro phosphorylation of rMADD by Akt. GST-wtMADD or -MADD mutants were expressed in bacteria, purified, and then incubated with rAkt and γ[^32P] ATP. After 1 h incubation at 30° C., the products were resolved on SDS-PAGE and ^32P-labeled proteins were visualized by autoradiography. (B) MADD is labeled by [^32P]orthophosphate in vivo. HEK293 cells were transfected with wtMADD or MADD mutant constructs. Twenty-four hours after transfection cells were incubated with 0.3 mCi/ml [32P]orthophosphate for 6 h. MADD was immunoprecipitated with an anti-YFP antibody. The precipitated MADD was separated by SDS-PAGE, transferred to a nitrocellulose membrane, and subjected to autoradiography. Loaded MADD was visualized by staining the same membrane with an anti-YFP antibody. (C) HEK293 cells were transfected with cDNAs for wtMADD or MADD mutants and. 36 h later the cells were harvested for immunoblotting using the anti-phospho-S-70, -T-173 or -T-1041 antibodies. An anti-YFP antibody was used to detect exogenous MADD. (D) HEK293 cells were transfected with wtMADD and 24 hours later cells were serum starved for 20 h. Subsequently, they were treated with LY (10 μM) for 1 h and/or IGF-1 (150 ng/ml) for 20 minutes. The cell lysates were immunoblotted and probed with anti phospho-specific antibodies or an anti-YFP antibody. […]

MADD [2] = test: Phosphorylation of endogenous MADD in HeLa cells (anti-phospho antibodies); details: LY 10 μM 1 h, IGF-1 150 ng/ml 20 minutes
DR4 = test: Association of exogenous MADD with DR4 in HEK293 cells (immunoprecipitation)
Protocol: (A) Phosphorylation status of MADD could influence its binding to DR4. HEK293 cells were transfected with wtMADD or MADD mutants. 36 h after transfection, the cells were harvested for immunoprecipitation using an anti-DR4 antibody followed by immunoblotting using an anti-YFP antibody to detect exogenous MADD. The membrane was reprobed with an anti-DR4 antibody to show the protein loading. (B) PI3K can influence the association of exogenous MADD with DR4. HEK293 cells were transfected with wtMADD. Twenty four hours after transfection, the cells were serum starved for 20 h. Further, they were treated with LY (10 μM) for 1 h, IGF-1 (150 ng/ml) for 20 minutes. Immunoprecipitation using an anti-DR4 antibody was followed by immunoblotting using anti-YFP or anti-DR4 antibody. (C) Akt can influence exogenous MADD association with DR4. HEK293 cells were co-transfected with wtMADD along with DN-Akt or the empty vector pcDNA3.1 (pcDNA). Thirty six hours after transfection, the cells were harvested for immunoprecipitation using anti-DR4 antibody followed by immunoblotting with an anti-YFP or an anti-DR4 antibody. (D) PI3K can influence the association of endogenous MADD with DR4. HeLa cells were serum starved for 20 h, then treated with LY (10 μM) for 1 h, IGF-1 (150 ng/ml) for 20 minutes. Immunoprecipitation using an anti-DR4 antibody was followed by immunoblotting with an anti-MADD or an anti-DR4 antibody. (E) Akt can influence the association of endogenous MADD with DR4. HeLa cells were transfected with DN-Akt or pcDNA. Thirty six hours after transfection, the cells were collected for immunoprecipitation using an anti-DR4 antibody followed by immunoblotting with an anti-MADD antibody.
MADD can bind to DR4 and thereby block the activation of the extrinsic apoptotic pathway. […] Stimulation of PI3K by IGF-1 increased, while inhibition by LY reduced, the association between wtMADD and DR4 (FIG. 15B). […] This interaction was reduced in the presence of LY (FIG. 15D) or DN-Akt (FIG. 15E).
Immunoprecipitation. Immunoprecipitations were performed using standard procedures. The samples were precleared with 10% (vol/vol) Protein-A agarose (Roche) for 1 h on a rocking platform. Specific antibodies were added and rocked for 1 h. Immunoprecipitates were captured by incubating with 10% (vol/vol) Protein-A agarose for an hour. The agarose beads were spun down and washed three times with NET/NP40 buffer (150 mM NaCl, 2 mM EDTA, 50 mM Tris-HCl pH 7.5, 0.1% NP-40). The antigens were released and denatured by adding SDS sample buffer. Immunoblots were prepared and analysed as described above.

Akt and MADD = test: TRAIL treatment of HeLa cells: Akt and MADD phosphorylation, caspase-8 activation (immunoblot); details: TRAIL 50 ng/ml
Protocol: (A) TRAIL treatment reduces the levels of Akt and MADD phosphorylation, and leads to caspase-8 activation. Hela cells were treated with TRAIL (50 ng/ml). The phosphorylation level of Akt was analyzed by immunoblotting using an anti-phospho Akt antibody. The phosphorylation levels of MADD was analyzed by immunoblotting using the anti-phospho T1041 antibody. Caspase-8 activation was analyzed by immunoblotting using an anti-caspase-8 antibody. (B) TRAIL induces FADD-procaspase-8 binding depending upon MADD phosphorylation status. HeLa cells were transfected either with caAkt or pcDNA3.1 empty vector. Cells were treated with TRAIL for 1 h. The MADD phosphorylation was analyzed by immunoblotting using the anti-phospho T1041 antibody. The association of procaspase-8 and FADD was analyzed by immunoprecipitation using an anti-FADD antibody followed by immunoblotting using an anti-caspase-8 antibody. […] 24 h later cells were treated with TRAIL (50 ng/ml) for 4 hours and caspase-8 activity was analyzed. *p<0.05 vs TRAIL+caAkt. […] The localizations of phosphorylated and nonphosphorylated forms of MADD in the membrane and cytosolic fractions were analyzed by immunoblotting using the anti-phospho T1041 antibody. […] The Bax distribution in cytoplasm and HM was analyzed by immunoblotting using an anti-Bax antibody. […] The distributions of Bax in cytoplasm and HM were analyzed as described for (E). […]

## insulin-like growth factor-1 [IGF-1]
MADD [1]
  S70, T173 and T1041 phosphorylation levels of MADD: increased
MADD [2]
  Phosphorylation of endogenous MADD: phosphorylated at all three sites
DR4
  Association of exogenous MADD with DR4: increased

## tumor necrosis factor-related apoptosis-inducing ligand [TRAIL]
Akt and MADD
  Caspase-8 activation: concomitant activation of caspase-8
  Levels of phosphorylation of Akt and MADD: reduced
